Measurements published in patent US9302999B2, “Substituted triazoles as herbicides” (E. I. DU PONT DE NEMOURS AND COMPANY, priority 2012, dated 2016).

Experiments:
[1] = system: johnsongrass (Sorghum halepense); assay: Test F pre-/postemergence: johnsongrass; format: in vivo; conditions: Preemergence
Source text: (§1) Seeds of plant species selected from corn (Zea mays), soybean (Glycine max), velvetleaf (Abutilon theophrasti), lambsquarters (Chenopodium album), poinsettia, wild (wild poinsettia, Euphorbia heterophylla), pigweed, palmer (palmer pigweed, Amaranthus palmeri), waterhemp (common waterhemp, Amaranthus rudis), surinam grass (Brachiaria decumbens), crabgrass, Brazil (Brazilian crabgrass, Digitaria horizontalis), panicum, fall (fall panicum Panicum dichotomiflorum), crabgrass, large (large crabgrass, Digitaria sanguinalis), foxtail, giant (giant foxtail, Setaria faberii), foxtail, green (green foxtail Setaria viridis), goosegrass (Eleusine indica), ragweed (common ragweed, Ambrosia elatior), barnyardgrass (Echinochloa crus-galli), sandbur (southern sandbur, Cenchrus echinatus), arrowleaf sida (Sida rhombifolia), ryegrass, Italian (Italian ryegrass, Lolium multiflorum), dayflower, VA (Virginia (VA) dayflower, Commelina virginica), field bindweed (Convolvulus arvensis), cocklebur (common cocklebur, Xanthium strumarium), morningglory (Ipomoea coccinea), nightshade (eastern black nightshade, Solanum ptycanthum), kochia (Kochia scoparia), nutsedge, yellow (yellow nutsedge, Cyperus esculentus), johnsongrass (Sorghum halepense), smartweed (ladysthumb smartweed, Polygonum persicaria), and beggarticks (hairy beggarticks, Bidens pilosa), were planted into a silt loam soil and treated preemergence with test chemicals formulated in a non-phytotoxic solvent mixture which included a surfactant. At the same time, plants selected from these crop and weed species and also pigweed (Amaranthus retroflexus), waterhemp_RES1 (ALS/Triazine resistant common waterhemp, Amaranthus rudis) and waterhemp_RES2 (ALS/HPPD resistant common waterhemp, Amaranthus rudis) were planted in pots containing a planting medium comprising spaghnum peat moss, vermiculite, wetting agent and starter nutrients treated with postemergence applications of some of the test chemicals formulated in the same manner. Plants ranged in height from 2 to 18 cm for postemergence treatments (1- to 4-leaf stage).
(§2) Treated plants and controls were maintained in a greenhouse for 14 to 21 days, after which time all species were compared to controls and visually evaluated. Plant response ratings, summarized in Table E, are based on a scale of 0 to 100 where 0 is no effect and 100 is complete control. A dash (-) response means no test result.

[2] = system: field bindweed (Convolvulus arvensis); assay: Test F pre-/postemergence: field bindweed; format: in vivo
Source text: as §1, §2

[3] = system: panicum, fall (fall panicum Panicum dichotomiflorum); assay: Test F pre-/postemergence: panicum, fall; format: in vivo
Method in brief: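 Visual response scores, 0 meaning no effect and 100 complete control, were assigned against untreated controls 14 to 21 days after treatment. Test chemicals in a surfactant-containing non-phytotoxic solvent were applied preemergence to seeded silt loam soil or postemergence to 2–18 cm plants in peat-based medium.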

Waterhemp = assay: Test C postemergence: waterhemp; format: in vivo, Amaranthus rudis
Source text: Seeds of plant species selected from blackgrass (Alopecurus myosuroides), bromegrass, downy (downy bromegrass, Bromus tectorum), foxtail, green (green foxtail, Setaria viridis), ryegrass, Italian (Italian ryegrass, Lolium multiflorum), winter wheat (Triticum aestivum), wild oat (Avena fatua), galium (catchweed bedstraw, Galium aparine), bermudagrass (Cynodon dactylon), surinam grass (Brachiaria decumbens), cocklebur (common cocklebur, Xanthium strumarium), corn (Zea mays), large crabgrass (Digitaria sanguinalis), woolly cupgrass (Eriochloa villosa), foxtail, giant (giant foxtail, Setaria faberii), goosegrass (Eleusine indica), johnsongrass (Sorghum halepense), kochia (Kochia scoparia), lambsquarters (Chenopodium album), morningglory (Ipomoea coccinea), nightshade (eastern black nightshade, Solanum ptycanthum), nutsedge, yellow (yellow nutsedge, Cyperus esculentus), pigweed (Amaranthus retroflexus), ragweed (common ragweed, Ambrosia elation), soybean (Glycine max), common (oilseed) sunflower (Helianthus annuus), Russian thistle (Salsola kali) and velvetleaf (Abutilon theophrasti) were planted into a blend of loam soil and sand and treated preemergence with test chemicals formulated in a non-phytotoxic solvent mixture which included a surfactant.
At the same time, plants selected from these crop and weed species and also barley (winter barley, Hordeum vulgare), canarygrass (Phalaris minor), chickweed (common chickweed, Stellaria media) windgrass (Apera spica-venti) and deadnettle (henbit deadnettle, Lamium amplexicaule) were planted in pots containing Redi-Earth® planting medium (Scotts Company, 14111 Scottslawn Road, Marysville, Ohio 43041) comprising spaghnum peat moss, vermiculite, wetting agent and starter nutrients and treated with postemergence applications of test chemicals formulated in the same manner. Plants ranged in height from 2 to 18 cm (1- to 4-leaf stage) for postemergence treatments.
Treated plants and controls were maintained in a greenhouse for 13 to 15 days, after which time all species were compared to controls and visually evaluated. Plant response ratings, summarized in Table C, are based on a scale of 0 to 100 where 0 is no effect and 100 is complete control. A dash (-) response means no test result.

[4] = 16 g ai/ha, scale 0 to 100 (0 no effect, 100 complete control)
[5] = 31 g ai/ha, scale 0 to 100 (0 no effect, 100 complete control)
[6] = Preemergence, 16 g ai/ha, scale 0 to 100 (0 no effect, 100 complete control)
[7] = Preemergence, 31 g ai/ha, scale 0 to 100 (0 no effect, 100 complete control)
[8] = Preemergence, 62 g ai/ha, scale 0 to 100
[9] = Preemergence, 125 g ai/ha, scale 0 to 100
[10] = Preemergence, 250 g ai/ha, scale 0 to 100
[11] = 125 g ai/ha, scale 0 to 100, 0 no effect, 100 complete control
[12] = Postemergence, 4 g ai/ha, scale 0 to 100
[13] = Postemergence, 8 g ai/ha, scale 0 to 100
[14] = Postemergence, 16 g ai/ha, scale 0 to 100
[15] = Postemergence, 31 g ai/ha, scale 0 to 100
[16] = Postemergence, 62 g ai/ha, scale 0 to 100
[17] = Preemergence, 4 g ai/ha, scale 0 to 100, 0 no effect, 100 complete control
[18] = Preemergence, 8 g ai/ha, scale 0 to 100, 0 no effect, 100 complete control

SMILES | Plant response rating, Johnsongrass [1, 4] | Plant response rating, Johnsongrass [1, 5] | Plant response rating, Johnsongrass ([1]; 125 g ai/ha, scale 0 to 100) | Plant response rating, Field Bindweed [2, 6] | Plant response rating, Field Bindweed [2, 7] | Plant response rating, Field Bindweed [2, 8] | Plant response rating, Field Bindweed [2, 9] | Plant response rating, Panicum, Fall [3, 6] | Plant response rating, Panicum, Fall [3, 7] | Plant response rating, Panicum, Fall [3, 9] | Plant response rating, Johnsongrass ([1]; 62 g ai/ha, scale 0 to 100) | Plant response rating, Waterhemp (Waterhemp; [11]) | further results
Fc1ccc(-n2nc(Cc3ccnc(C(F)(F)F)c3)c(OCC(F)(F)F)n2)cc1 [Compound 142] | 0 | 5 | 30 | 20 | 50 | 75 | 98 | 25 | 65 | 100 | – | – | –
CCCc1nn(-c2ccc(F)cc2)nc1Cc1ccnc(C(F)(F)F)c1 [Compound 153] | 0 | 10 | 100 | 5 | 65 | 65 | 100 | 5 | 100 | 100 | 50 | 98 | Plant response rating, Johnsongrass ([1]; 250 g ai/ha, scale 0 to 100): 100; Plant response rating, Field Bindweed [2, 10]: 100; Plant response rating, Panicum, Fall [3, 10]: 100
Cc1nn(-c2ccc(C(F)(F)F)c(F)c2)nc1Cc1ccnc(C(F)(F)F)c1 [Compound 162] | 20 | 20 | – | 5 | 5 | 5 | – | 100 | 100 | – | 20 | 100 | Plant response rating, Johnsongrass ([1]; 4 g ai/ha, scale 0 to 100, 0 no effect, 100 complete control): 20; Plant response rating, Johnsongrass ([1]; 8 g ai/ha, scale 0 to 100, 0 no effect, 100 complete control): 20; Plant response rating, Field Bindweed [2, 12]: 20; Plant response rating, Field Bindweed [2, 13]: 20; Plant response rating, Field Bindweed [2, 14]: 20; Plant response rating, Field Bindweed [2, 15]: 30; Plant response rating, Field Bindweed [2, 16]: 50; Plant response rating, Field Bindweed [2, 17]: 0; Plant response rating, Field Bindweed [2, 18]: 0; Plant response rating, Panicum, Fall [3, 12]: 15; Plant response rating, Panicum, Fall [3, 13]: 20; Plant response rating, Panicum, Fall [3, 14]: 20; Plant response rating, Panicum, Fall [3, 15]: 25; Plant response rating, Panicum, Fall [3, 16]: 30; Plant response rating, Panicum, Fall [3, 17]: 0; Plant response rating, Panicum, Fall [3, 18]: 0
CCc1nn(-c2ccc(F)cc2)nc1Oc1ccnc(C(F)(F)F)c1 [Compound 166] | – | – | – | – | – | – | – | – | – | – | – | 98 | –
CCCc1nn(-c2ccc(C(F)(F)F)c(F)c2)nc1Oc1ccnc(C(F)(F)F)c1 [Compound 185] | – | – | – | – | – | – | – | – | – | – | – | 95 | Plant response rating, Waterhemp (Waterhemp; 250 g ai/ha, scale 0 to 100 (0 no effect, 100 complete control)): 100
